The values that follow are results of earlier work, collected in paper PMC11704089, “A Novel Cell-Penetrating Peptide–Vascular Endothelial Growth Factor Small Interfering Ribonucleic Acid Complex That Mediates the Inhibition of Angiogenesis by Human Umbilical Vein Endothelial Cells and in an Ex Vivo Mouse Aorta Ring Model” (Biomaterials Research, 2025).

The data set deals with various cell lines.

Take RNQRKTVRCFRCRQAGHWISDCRLKSK [Ara27]: the Cytotoxicity entry was “without evidence of cytotoxicity”; the “Intracellular uptake compared to Tat-protein transduction domain and membrane translocating sequence” value is recorded as “significant improvement in intracellular uptake”. Further, the Cellular internalization result (low concentrations and short treatment conditions, various cell lines) is “efficiently internalized”.
